Series [1] deals with p53 tumor suppressor protein. The series is described as follows: Western blot of p53 and p21Cip1 induction in SH-SY5Y cells. The format is cell-based, human. The method, then: (§1) Cell culture, cell extract preparation, SDS-PAGE, and western blot: SH-SY5Y pediatric neuroblastoma cells were purchased from ATCC. Pediatric glioblastoma multiforme cell line CHLA-200 was a generous gift from Dr. C. Patrick Reynolds (Texas Tech). Cancer cells were cultured in RPMI-1640 supplemented with 10% fetal bovine serum (FBS) and 1% Penicillin-Streptomycin. Cells were lysed with RIPA lysis buffer (Millipore) containing protease inhibitor cocktails (Roche). The protein concentration was measured by the Lowry method. Equal amounts of protein were subjected to SDS-PAGE and then transferred to a PVDF membrane. The proteins of interest were then probed with their respective antibodies.
(§2) SH-SY5Y cells were treated with 4Ei-10. SH-SY5Y is a neuroblastorna cell line that contains wild-type p53. 4Ei-10 is a small molecule translation inhibitor. It is a prodrug that is converted to N7-chlorophenoxyethyl guanosine monophosphate by the enzyme hHINT1 in the cell as shown in FIG. 1A. N7-chlorophenoxyethyl guanosine monophosphate competes with the cap structure for binding to eIf-4E, preventing the recruitment of the 5′ mRNA cap structure to the eIF-4F complex. […] A time-course study was then performed by treating SH-SY5Y cells with 4Ei-10 at a concentration of 100 μM.
To determine if the increase of the p53 tumor suppressor protein caused by 4Ei-10 is associated with enhanced p53 tumor suppressor protein synthesis, SH-SY5Y cells were treated with 4Ei-10 or 4Ei-10 plus cycloheximide, a protein synthesis (elongation) inhibitor.
In general terms: Immunoblotting shows a protein as a band on a membrane.

Series [2] relates to SH-SY5Y cells. The series is described as follows: Western blot of PARP cleavage (apoptosis) in SH-SY5Y cells. The format is cell-based. The method, then: as §1
Since the p53 tumor suppressor protein is also a stimulator of cell apoptosis, the levels of PARP, a substrate of caspase 3, were examined in SH-SY5Y cells treated with 4Ei-10.

The test system of series [3] is cell lines of mantle cell lymphoma (MCL). Conditions: cited from earlier work.
In a further series the target is T1, eIF4E and eIF4G (Homo sapiens, UniProt P06730).
T1 construct: endogenous in cells; host or cells: SH-SY5Y
T1 sequence (P06730 2-217 limits assumed): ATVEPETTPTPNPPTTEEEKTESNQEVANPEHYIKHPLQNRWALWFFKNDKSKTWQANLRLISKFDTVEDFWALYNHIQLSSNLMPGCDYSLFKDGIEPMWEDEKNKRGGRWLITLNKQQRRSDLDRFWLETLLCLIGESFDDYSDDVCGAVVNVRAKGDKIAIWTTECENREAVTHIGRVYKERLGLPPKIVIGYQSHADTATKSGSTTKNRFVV
Nature of the series: m7-GTP Sepharose bead pull-down of eIF4E and eIF4G. The format is cell-based. As to conditions: SH-SY5Y cells, 100 μM, 24 hours. The method, then:
SH-SY5Y cells were treated with 100 μM 4Ei-10 for 24 hours. After treatment, cells were lysed and equal amounts of proteins were incubated with m^7-GTP Sepharose beads. After incubation, beads were washed and mixed with SDS-PAGE loading buffer. The eluted proteins were then subjected to SDS-PAGE and transferred to a PVDF membrane. Bound eIF4G and eIF-4E were then detected with total eIF4E and total β-actin as input controls.

Series [4] relates to SH-SY5Y cells. The series is described as follows: Flow cytometry assay of cell cycle distribution. Format: cell-based. As to the method: Flow Cytometry Assay of Cell Cycle Distribution: Cells were seeded onto six well plates and were grown to sub-confluency. After treatment with or without 4Ei-10, cells were gently removed from the plates, washed once with cold PBS, and fixed with cold 70% ethanol. Cells were then stained with propidium iodide and subjected to flow cytometry (Becton Dickinson FACScalibur). The cell population at each phase was analyzed by the Modfit 2 software.
Since the p53 tumor suppressor protein is known to induce cell cycle arrest through induction of p21Cip1, a cell cycle distribution analysis was performed after treating SH-SY5Y cells with 4Ei-10.
For orientation: In flow cytometry, cells or beads pass a laser one at a time.

In another series the test system is CHLA-200 cells. Nature of the series: Western blot of p53, p21Cip1 and PARP cleavage in CHLA-200 cells. The format is cell-based. The method, then:
as §1
The ability of 4Ei-10 to induce the p53 tumor suppressor protein in other type of cell lines was also examined. CHLA-200 is a children's glioblastoma multiforme cell line with wild-type p53. CHLA-200 cells were treated with 100 μM 4Ei-10.

Series [5] concerns SH-SY5Y cells. The series is described as follows: Indirect immunofluorescence of phosphorylated H2A.X foci (DNA double strand breaks). Format: cell-based. Conditions: nucleus.
Method: Indirect immunofluorescence: Chamber slides (8 wells, Lab-Tek) were treated with Poly-L-Lysine (Sigma) prior to seeding with SH-SY5Y cells at 8000 cells/well. Sub-confluent cells were treated with different reagents. After treatment, cells were briefly fixed in 3% paraformaldehyde solution and were then permeablized with 0.2% Triton X-100 in Tris-buffered saline. After permeabilization, cells were incubated with a phosphor-Histone H2A.X antibody (Millipore) and then with a Texas-Red conjugated secondary antibody (Jackson Laboratories) followed by DAPI staining. Images were recorded using a Nikon Eclipse TE2000-E confocal microscope at 60× magnification.
Foci formation of phosphorylated H2A.X, which recognizes DNA double strand breaks, was examined.
The next series deals with IRES of p53 mRNA. Nature of the series: Dual luciferase assay of p53 IRES activity (pR5UTRF reporter). The format is cell-based. Conditions: SH-SY5Y cells transfected with pR5UTRF, compared to untreated control cells. As to the method: Dual luciferase assays: Cells were lysed with passive lysis buffer (Promega). The dual-luciferase reporter assay (Promega) was then performed according to the manufacturer's instructions. Firefly and Renilla luciferase activities were determined with a Synergy 2 (BioTek) microplate reader.
To determine if the IRES activity of p53 mRNA increases during 4Ei-10 treatment when cap-dependent protein translation is halted by 4Ei-10, a bicistronic dual-luciferase reporter vector pR5UTRF, which contains the IRES sequence (−131 nt before 1st AUG of p53 ORF, accession number, NM_00546.4) of the p53 mRNA, was used to transfect SH-SY5Y cells. The IRES activity of p53 mRNA was then measured as the ratio of firefly (Fluc, controlled by the IRES sequence of p53 mRNA) to Renilla luciferase (Rluc) activity, Rluc is controlled by eIF4E and cap-dependent protein translational machinery and was used as an internal control for Fluc.

Series [6] deals with SH-SY5Y cells. Nature of the series: MTT cell viability assay. The format is cell-based. Conditions: different concentrations of 4Ei-10. As to the method:
MTT cell viability assay: Cells were plated on a 24-well plate at 20,000 cells/well. After treatment with different reagents, the ratio of viable cells in each well was determined using a CellTiter Cell Proliferation kit (Promega) following the manufacturer's instructions. MTS solution was placed in each well at a ratio of 20 μL/100 μL of cell culture medium and incubated in a cell culture incubator for 2-3 hours. Absorbance was then measured at the wavelength of 492 nm with a microplate reader.
as §2
For orientation: Tetrazolium assays rely on reduction of a dye to a coloured formazan, in cell work by metabolically active cells.

The subject of series [7] is SH-SY5Y cells. The series is described as follows: Cell Death ELISA analysis. Format: cell-based. As to conditions: data not shown.
In a further series the test system is MCF-7 cells. Nature of the series: Western blot of p53 and PARP cleavage in MCF-7 cells. Format: cell-based. Conditions: 4Ei-10 alone. The method, then: Sub-confluent MCF-7 cells were treated with either 100 μM 4Ei-10, 50 μM 4EGI-1, or both for 24 hours. After treatment, both floating and attached cells were collected and lysed. Equal amounts of protein were subjected to SDS-PAGE and transferred to a PVDF membrane. p53, PARP, cleaved PARP, and β-actin were detected with their respective antibodies.

For the molecule `O=C(O)C(Cc1ccccc1[N+](=O)[O-])=NNc1nc(-c2ccc(Cl)c(Cl)c2)cs1` (mixture of isomers) [4EGI-1, reference compound], the “induction of the p53 tumor suppressor protein, comparison of single agents and combination” value in series [1] was “stronger ability”. In addition, the “induction of cellular apoptosis, comparison of single agents and combination” value in the series with SH-SY5Y cells [2] was “stronger ability”.

Turning to `CSCCOP(=O)(NCCc1c[nH]c2ccccc12)OC[C@H]1O[C@@H](n2c[n+](CCOc3ccc(Cl)cc3)c3c(=O)[nH]c(N)nc32)C(O)C1O` (stereo partly drawn) [4Ei-10], in series [1] (100 μM, time-course), the “expression of p53 downstream target p21Cip1” value is listed as “increased expression” and the “p53 tumor suppressor protein accumulation” value is listed as “induced p53 tumor suppressor protein accumulation”. The “p53 tumor suppressor protein accumulation with or without cycloheximide” value in series [1] (protein synthesis inhibitor experiment) is reported as “induction of the p53 tumor suppressor protein”. In series [3], the c-Myc expression entry is given as “suppression of c-Myc expression” and the “expression of p27” value is reported as “induce the expression of p27”. Moreover, the “cell proliferation and cell survival” value in series [3] (multiple cell lines of mantle cell lymphoma) is “inhibits cell proliferation and cell survival”. For the same molecule, in series [3] (to doxorubicin, dexamethasone, and ibrutinib), the chemosensitization result is listed as “enhanced chemosensitization”. Besides, at eIF4E and eIF4G, the “eIF4E bound to the m7-GTP Sepharose beads” value is “decreased” and the “eIF4G bound to the m7-GTP Sepharose beads” value was “decreased”. Besides, in the series on SH-SY5Y cells [4], the “cell numbers at the G1 phase” value is “substantial increase” and the “cell numbers at the S phase” value is listed as “dramatic decrease”. Moreover, the “G1S ratio, an indicator of G1 cell cycle arrest” value with SH-SY5Y cells [4] (compared to control cells) is recorded as “two-fold increase”. Further, in the series with CHLA-200 cells (CHLA200 cells), the cell apoptosis entry is given as “increased cell apoptosis” and the “induction of the p53 tumor suppressor protein” value was “Induction of the p53 tumor suppressor protein was observed”. In the series with CHLA-200 cells (CHLA-200 cells, 100 μM), the “PARP cleavage (apoptosis)” value is “induced” and the “p21Cip1 induction (cell cycle arrest)” value is “induced”. For the same molecule, in the series with SH-SY5Y cells [2] (100 μM), the “cleaved PARP (cellular apoptosis)” value is “increase of cleaved PARP” and the “strength of apoptosis induced” value is “relatively weak”. Also, the “treatment time after which apoptosis could be seen” value in the series on SH-SY5Y cells [2] (100 μM, prolonged treatment) is not below 24 h. In addition, in the series with SH-SY5Y cells [5], the “foci formation of phosphorylated H2A.X (DNA double strand breaks)” value is on record as “not seen”. In addition, the “IRES activity of p53 mRNA (ratio of Fluc/Rluc)” value with IRES of p53 mRNA was “significantly increased”. Moreover, the “cell viability or cell proliferation” value with SH-SY5Y cells [6] is on record as “decrease in cell viability or cell proliferation in a concentration-dependent manner”. Also, the “cell death or apoptosis” value with SH-SY5Y cells [7] is recorded as “enhanced cell death or apoptosis”. Moreover, in the series with MCF-7 cells, the cell apoptosis result is reported as “increased cell apoptosis” and the “induction of the p53 tumor suppressor protein” value is reported as “Induction of the p53 tumor suppressor protein was observed”.

The record behind these values is patent US11439656B2, “Pharmaceutical compounds and uses thereof” (Regents of the University of Minnesota, priority 2018, dated 2022).
